These results are taken from patent US5981777A, “Recovery of taxanes from plant material” (The Regents of the University of California, priority 1997, dated 1999).

Experiment [1] deals with polyclonal anti-taxane (TA11) antibody. As to the kind of experiment: indirect competitive immunoassay, cross-reactivity with TA11. The settings on record: > x = highest concentration tested (270 or 300 ng/ml), read-out: IC50 TA11 (concentration of analyte required to inhibit antibody binding to solid phase antigen by 50%). From the text: (§1) A preferred antibody is TA14 available from Hawaii Biotechnology Group is particularly useful for this purpose. The cross-reactivity of polyclonal anti-taxane (TA11) and taxol- (TA12), baccatin III- (TA13), or "generic taxane"-specific (TA14) monoclonal antibodies as determined by indirect competitive immunoassays is set forth in Table 1. All of these antibodies are available from Hawaii Biotechnology group.
(§2) ^a Crossreactivity is expressed as the concentration of analyte
(§3) required to inhibit antibody binding to solid phase antigen by 50%
(§4) (IC50) in the indicated competitive immunoassay. Values expressed as
(§5) > x represent the highest concentration tested (either 270 or 300 ng/ml).

The test system of experiment [2] is "generic taxane"-specific (TA14) monoclonal antibody. Particulars: in words; Kingston et al. J. Nat. Prod. 53:1-12 (1990); cited from earlier work.
In experiment [3] the test system is baccatin III-specific (TA13) monoclonal antibody. Particulars: in words; cited from earlier work.
Experiment [4] relates to taxol-specific (TA12) monoclonal antibody. Particulars: in words; cited from earlier work.
Experiment [5] has the same test system. The experiment is described as follows: indirect competitive immunoassay, cross-reactivity with TA12. On the set-up: species or system mouse. The settings on record: > x = highest concentration tested (270 or 300 ng/ml), read-out: IC50 TA12 (concentration of analyte required to inhibit antibody binding to solid phase antigen by 50%).
Description: as §1, §2, §3, §4, §5

The subject of experiment [6] is baccatin III-specific (TA13) monoclonal antibody. As to the kind of experiment: indirect competitive immunoassay, cross-reactivity with TA13. On the set-up: species or system mouse. Particulars: > x = highest concentration tested (270 or 300 ng/ml), read-out: IC50 TA13 (concentration of analyte required to inhibit antibody binding to solid phase antigen by 50%).
Description: as §1, §2, §3, §4, §5

Experiment [7] has as its system "generic taxane"-specific (TA14) monoclonal antibody. The experiment is described as follows: indirect competitive immunoassay, cross-reactivity with TA14. On the set-up: species or system mouse. The settings on record: > x = highest concentration tested (270 or 300 ng/ml), read-out: IC50 TA14 (concentration of analyte required to inhibit antibody binding to solid phase antigen by 50%).
Description: as §1, §2, §3, §4, §5

Where only a bound is given, the exact number is not on record here.

On to `C/C=C(\C)C(=O)N[C@@H](c1ccccc1)[C@@H](O)C(=O)O[C@H]1C[C@@]2(O)[C@@H](OC(=O)c3ccccc3)[C@@H]3[C@]4(OC(C)=O)CO[C@@H]4C[C@H](O)[C@@]3(C)C(=O)[C@H](OC(C)=O)C(=C1C)C2(C)C` [cephalomannine], for which the IC50 in experiment [1] was 1 nM. The “cross-reaction with TA14” value in experiment [2] is reported as “cross reacts”.

For the compound `CC(=O)O[C@H]1C(=O)[C@]2(C)[C@H](O)C[C@H]3OC[C@@]3(OC(C)=O)[C@H]2[C@H](OC(=O)c2ccccc2)[C@]2(O)C[C@H](O)C(C)=C1C2(C)C` [baccatin V], the “binding to TA13” value in experiment [3] is on record as “binds with equal affinity”.

For the compound `CC(=O)O[C@H]1C(=O)[C@@]2(C)[C@H]([C@H](OC(=O)c3ccccc3)[C@]3(O)C[C@H](OC(=O)[C@H](O)[C@@H](NC(=O)c4ccccc4)c4ccccc4)C(C)=C1C3(C)C)[C@]1(OC(C)=O)CO[C@@H]1C[C@@H]2O` [Taxol ® (paclitaxel), paclitaxel], the IC50 in experiment [1] came out at 0.5 nM. Also, the “cross-reaction with TA14” value in experiment [2] was “cross reacts”. In addition, the “reactivity with TA12” value in experiment [4] is “specifically reactive”.

For `CC(=O)O[C@@]12CO[C@@H]1C[C@H](O[C@@H]1OC[C@@H](O)[C@H](O)[C@H]1O)[C@@]1(C)C(=O)[C@H](O)C3=C(C)[C@@H](OC(=O)[C@H](O)[C@@H](NC(=O)c4ccccc4)c4ccccc4)C[C@@](O)([C@@H](OC(=O)c4ccccc4)[C@H]21)C3(C)C` [7-xylosyl-10-deacetyltaxol], in experiment [1], the IC50 turned out to be 1.8 nM.

Regarding `CC(=O)O[C@@]12CO[C@@H]1C[C@H](O)[C@@]1(C)C(=O)[C@H](O)C3=C(C)[C@@H](OC(=O)[C@H](O)[C@@H](NC(=O)c4ccccc4)c4ccccc4)C[C@@](O)([C@@H](OC(=O)c4ccccc4)[C@H]21)C3(C)C` [10-deacelyltaxol], the IC50 in experiment [1] was 0.7 nM.

For the compound `CC(=O)O[C@@]12CO[C@@H]1C[C@@H](O)[C@@]1(C)C(=O)[C@H](O)C3=C(C)[C@@H](OC(=O)[C@H](O)[C@@H](NC(=O)c4ccccc4)c4ccccc4)C[C@@](O)([C@@H](OC(=O)c4ccccc4)[C@H]21)C3(C)C` [7-epi-10-deacetyltaxol], the IC50 was 25 nM in experiment [5], over 333 nM in experiment [6], 15 nM in experiment [7] and 1.2 nM in experiment [1].

On to `CC(=O)O[C@H]1C(=O)[C@]2(C)[C@H](O)C[C@H]3OC[C@@]3(OC(C)=O)[C@H]2[C@H](OC(=O)c2ccccc2)[C@]2(O)C[C@H](OC(=O)[C@H](O)[C@@H](NC(=O)c3ccccc3)c3ccccc3)C(C)=C1C2(C)C` [7-epi-taxol], for which the IC50 in experiment [5] is 80 nM; in experiment [6] it was over 316 nM; in experiment [7], 50 nM; in experiment [1], 8 nM.

For the compound `CC(=O)O[C@H]1C(=O)[C@@]2(C)[C@H]([C@H](OC(=O)c3ccccc3)[C@]3(O)C[C@H](O)C(C)=C1C3(C)C)[C@]1(OC(C)=O)CO[C@@H]1C[C@@H]2O` [baccatin III], the “binding to TA13” value in experiment [3] was “binds with equal affinity”. Moreover, in experiment [2], the “cross-reaction with TA14” value is “cross reacts”.

Turning to `CC(=O)O[C@@]12CO[C@@H]1C[C@H](O)[C@@]1(C)C(=O)[C@H](O)C3=C(C)[C@@H](O)C[C@@](O)([C@@H](OC(=O)c4ccccc4)[C@H]21)C3(C)C` [10-deacetylbaccatin III], the “cross-reaction with TA14” value in experiment [2] was “cross reacts”.

As to `CC(=O)O[C@@]12CO[C@@H]1C[C@@H](O)[C@@]1(C)C(=O)[C@H](O)C3=C(C)[C@@H](O)C[C@@](O)([C@@H](OC(=O)c4ccccc4)[C@H]21)C3(C)C` [7-epi-10-deacetylbaccatin III], the IC50 is over 496 nM in experiment [5] and 34 nM in experiment [1].

Regarding `CC(=O)O[C@@]12CO[C@@H]1C[C@H](O)[C@@]1(C)C(=O)[C@H](O)C3=C(C)[C@@H](OC(=O)[C@H](O)[C@@H](NC(=O)OC(C)(C)C)c4ccccc4)C[C@@](O)([C@@H](OC(=O)c4ccccc4)[C@H]21)C3(C)C` [Taxotere ® (docetaxel), docetaxel], the IC50 is over 318 nM in experiment [5], over 318 nM in experiment [6] and 10 nM in experiment [7].
